Assays:
[1] = HPLC quantification of Z and SE isomers generated in the solution after dissolution; type: physicochemical; conditions: in ethanol solution after dissolution of all crystals
Procedure: (§1) Ethanol containing 10% water was added to luliconazole, followed by being heated, stirred, and filtrated while applying the heat. A filtrate was quickly cooled with an ice bath and the wall surface was scraped with a spatula to perform the recrystallization. Crystals were collected by filtration, followed by being dried by using phosphorus pentaoxide to obtain Crystal 1 of the present invention. In distinct Comparative Example, the same process or treatment was performed while replacing the solvent with a mixture of ethyl acetate/n-hexane (5:1) to obtain Crystal of Comparative Example. The elution or dissolution test was performed for the two types of the crystals to investigate the elution or dissolution profile. After confirming the dissolution of all crystals, the Z isomer and the SE isomer, which were the isomers generated or formed in the solution, were analyzed and quantitatively measured by HPLC assay.
(§2) In the elution or dissolution test, 500 mL of anhydrous ethanol was used as the solvent, and 1 g of luliconazole was dissolved under constant stirring at room temperature. The time, which was required for the dissolution, was simultaneously measured. According to Table 1, it is appreciated that the time required for the dissolution is short for Crystal 1, and thus the generation of the Z isomer and the SE isomer as the isomers is suppressed in the dissolving step.
The condition for HPLC was as follows. Column: CHIRALCEL OD-RH 4.6×150 mm, column temperature: 35° C., mobile phase: mixture of methanol/2% aqueous solution of potassium hexafluorophosphate (85:15, v/v), flow rate: 0.6 mL/min., detection: 295 nm).

[2] = Elution or dissolution test of luliconazole crystals in anhydrous ethanol; type: physicochemical; conditions: 1 g luliconazole in 500 mL anhydrous ethanol, constant stirring, room temperature
Procedure: as §1, §2

Amount of generation of SE isomer [1]	Amount of generation of Z isomer [1]	Time required until dissolution [2]	SMILES
0.06%	0.06%	200 min	N#C/C(=C1/SC[C@@H](c2ccc(Cl)cc2Cl)S1)n1ccnc1 [Crystal 1, luliconazole]
0.09%	0.13%	300 min	N#C/C(=C1/SC[C@@H](c2ccc(Cl)cc2Cl)S1)n1ccnc1 [Crystal of Comp. Ex., luliconazole]
